Data: PubChem BioAssay (NCI)
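Where inhibition never reached the appropriate level, the endpoint shown equals the highest concentration tested. Otherwise, values were interpolated linearly from a five-concentration, 48-hour dose response in 96-well plates. GI50: concentration for 50% inhibition of growth. TGI: concentration producing complete growth inhibition.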

Assays:
Assay in all cases: NCI-60 cell line screen, 48 h
A498 renal = tested on: A498 renal
MALME-3M melanoma = tested on: MALME-3M melanoma
CAKI-1 renal = tested on: CAKI-1 renal
MOLT-4 leukemia = tested on: MOLT-4 leukemia
T-47D breast = tested on: T-47D breast
HCT-116 colon = tested on: HCT-116 colon
SK-MEL-28 melanoma = tested on: SK-MEL-28 melanoma
SNB-19 CNS = tested on: SNB-19 CNS
NCI-H23 lung = tested on: NCI-H23 lung
CCRF-CEM leukemia = tested on: CCRF-CEM leukemia

SMILES | GI50 (A498 renal) | TGI (A498 renal) | GI50 (MALME-3M melanoma) | TGI (MALME-3M melanoma) | GI50 (CAKI-1 renal) | TGI (CAKI-1 renal) | GI50 (MOLT-4 leukemia) | TGI (MOLT-4 leukemia) | GI50 (T-47D breast) | TGI (T-47D breast) | GI50 (HCT-116 colon) | TGI (HCT-116 colon) | GI50 (SK-MEL-28 melanoma) | TGI (SK-MEL-28 melanoma) | GI50 (SNB-19 CNS) | TGI (SNB-19 CNS) | TGI (NCI-H23 lung) | TGI (CCRF-CEM leukemia) | GI50 (NCI-H23 lung) | GI50 (CCRF-CEM leukemia)
C1CC[N-]CC1.CC(=N\O)/C(C)=N/O.CC(=N\O)/C(C)=N/O.[CH2-]CCN1CCOCC1.[Co+2] | > 100 µM | > 100 µM | > 100 µM | > 100 µM | > 100 µM | > 100 µM | 5.91 µM | 39.5 µM | > 100 µM | > 100 µM | > 100 µM | > 100 µM | > 100 µM | > 100 µM | > 100 µM | > 100 µM |  |  |  | 
O=C(/C(=C/c1ccccc1)c1ccccc1)N1c2ccccc2CC1c1c[nH]c2ccccc12 (stereo not given) |  | > 100 µM |  | > 100 µM |  | > 100 µM |  | 49.7 µM |  |  |  | > 100 µM |  | > 100 µM |  | > 100 µM | > 100 µM | > 100 µM |  | 
c1ccc(C2[C@@H]3CCCc4ccccc4C3=NN2c2ccccc2)cc1 (stereo not given in full) |  | > 100 µM |  | > 100 µM |  |  |  | > 100 µM |  |  |  | > 100 µM |  | > 100 µM |  | > 100 µM | > 100 µM | > 100 µM |  | 
COc1cc2c(cc1OC)-c1ncc3cc4c(cc3c1C2)OCO4 |  |  |  |  | 38.5 µM | > 100 µM | 4.14 µM | 20.4 µM | 71.2 µM | > 100 µM | 11.1 µM | 23 µM | > 100 µM | > 100 µM | 60 µM | > 100 µM | 41.7 µM | 21.4 µM | 20.3 µM | 6.36 µM
CCOC(=O)/N=c1/nc(N(C)C)ss1 |  | > 100 µM |  | > 100 µM |  | > 100 µM |  | > 100 µM |  |  |  | > 100 µM |  | > 100 µM |  | > 100 µM | > 100 µM | > 100 µM |  | 
COC(=O)C1CC(C(=O)OC)c2nc3cc(C)c(C)cc3nc21 (stereo not given) |  | > 100 µM |  | > 100 µM |  | > 100 µM |  | > 100 µM |  |  |  |  |  | > 100 µM |  | > 100 µM | > 100 µM | > 100 µM |  | 
Cc1ccc(S(=O)OC23CC4CC(CC(C4)C2)C3)cc1 (stereo not given) |  | > 100 µM |  | > 100 µM |  | > 100 µM |  | > 100 µM |  |  |  | > 100 µM |  | > 100 µM |  | > 100 µM | > 100 µM |  |  | 
CN(C)CCNc1nc(-c2cccs2)cc(-c2cccs2)n1 |  | 25.4 µM |  | 30.9 µM |  |  |  | 13.4 µM |  |  |  | 23.4 µM |  | 30 µM |  |  | 25.7 µM | 24.1 µM |  | 
O=S(=O)(O)ONC1=NCCN1 |  |  | > 100 µM | > 100 µM | > 100 µM | > 100 µM | 49.7 µM | > 100 µM | 38.8 µM | > 100 µM | 65.1 µM | > 100 µM | > 100 µM | > 100 µM | > 100 µM | > 100 µM | > 100 µM | > 100 µM | 94.2 µM | 43.4 µM
COc1ccc(C(=O)O/N=C2/CCC/C2=C\c2ccccc2)cc1 |  | > 100 µM |  | > 100 µM |  | > 100 µM |  | > 100 µM |  |  |  | > 100 µM |  | > 100 µM |  | > 100 µM | > 100 µM | > 100 µM |  | 
Cc1nnc(-c2ccc(-c3nc4ccccc4o3)cc2)o1 |  |  |  |  | > 100 µM | > 100 µM |  |  | > 100 µM | > 100 µM | > 100 µM | > 100 µM | > 100 µM | > 100 µM | 20.7 µM | 43.1 µM | > 100 µM |  | > 100 µM | 
CC(=O)CC(=O)/C=C/c1cccs1 |  | > 100 µM |  | > 100 µM |  | > 100 µM |  | > 100 µM |  |  |  | > 100 µM |  |  |  | > 100 µM | > 100 µM | > 100 µM |  | 
Nc1ccc(C(=O)N/C(=C\c2cccc([N+](=O)[O-])c2)c2nc3c4c(ccc3[nH]2)C(=O)c2ccccc2C4=O)cc1 |  | 57.7 µM |  | > 100 µM |  | > 100 µM |  | > 100 µM |  |  |  | > 100 µM |  | > 100 µM |  | > 100 µM | > 100 µM | > 100 µM |  | 
COc1cc([C@@H]2c3cc4c(cc3C[C@H]3COC(=O)[C@@H]32)OCO4)cc2c1OCO2 |  |  |  | > 100 µM |  |  |  | > 100 µM |  |  |  |  |  | > 100 µM |  |  |  | 97.7 µM |  | 
O=C(c1ccccc1)C1C(C(=O)c2ccccc2)C(c2ccccc2)N(c2ccccc2)C1c1ccccc1 (stereo not given) |  |  |  | > 100 µM |  | > 100 µM |  | > 100 µM |  | > 100 µM |  | > 100 µM |  | > 100 µM |  | > 100 µM | > 100 µM | > 100 µM |  | 
COc1ccc2nc3cccc(C(=O)NCCN(C)C)c3nc2c1 |  | 3.34 µM |  | 2.69 µM |  | > 20.9 µM |  | 1.19 µM |  |  |  | 2.6 µM |  | 4.88 µM |  | 19.6 µM | 3.41 µM |  |  | 
C[N+](C)(C)CC1CCCC/C1=N\O (stereo not given) |  | > 100 µM |  | > 100 µM |  |  |  | > 100 µM |  |  |  | > 100 µM |  | > 100 µM |  | > 100 µM | > 100 µM | > 100 µM |  | 
OCC(O)C(OC1OC(CO)C(O)C(O)C1O)c1nn(-c2ccccc2)c2nc3cc(Cl)ccc3nc12 (stereo not given) |  | > 100 µM |  | > 100 µM |  |  |  | > 100 µM |  |  |  | > 100 µM |  | > 100 µM |  | > 100 µM | > 100 µM | > 100 µM |  | 
COc1c(N2CCN(Cn3c(O)c(N=NC(=O)c4ccncc4)c4cc(F)ccc43)C(C)C2)c(F)cc2c(=O)c(C(=O)O)cn(C3CC3)c12 (stereo not given) | 13.3 µM | > 50 µM |  |  | > 50 µM | > 50 µM | 39.1 µM | > 50 µM |  |  | 8.24 µM | 15 µM | > 50 µM | > 50 µM | 32.5 µM | > 50 µM | > 50 µM |  | 16.7 µM | 
Nc1c(-c2nc3ccccc3[nH]2)sc(=S)n1-c1ccc(Cl)cc1 |  | 88.2 µM |  | > 100 µM |  | 54.6 µM |  | > 100 µM |  |  |  |  |  | > 100 µM |  | 57.4 µM | 81.8 µM | > 100 µM |  | 
NS(=O)(=O)c1ccc(NC(=O)COC(=O)c2cccc3c(=O)c4ccccc4[nH]c23)cc1 |  | 51.8 µM |  | 50.5 µM |  | > 100 µM |  | > 47.2 µM |  |  |  | > 74.9 µM |  | > 100 µM |  | 45.2 µM | 60.5 µM | > 89.5 µM |  | 
